Data on eleven compounds can be found in US20240217936A1, “5-BENZY[…] AND PREPARATION METHOD THEREFOR AND USE THEREOF” (WEST CHINA HOSPITAL, SICHUAN UNIVERSITY, priority 2021, published 2024).

Counter-ions that a name gives are not always drawn.

Series [1] in a line: Degradation of prodrug in rat plasma (release of dexmedetomidine, HPLC). Format: in vitro ADME. Conditions: 37° C. The procedure:
The test prodrug was formulated as a 1 mg/mL of physiological saline solution, and then 100 μL of the prodrug solution was added to 900 μL of rat plasma. The test solution was vortexed for 30 s before incubation at 37° C. 50 μL of drug-containing plasma was collected at 0.5 min, 1 min, 2 min, 3 min, 5 min, 10 min, 15 min, 20 min, 30 min, and 60 min, respectively, to which was immediately added 150 μL of acetonitrile to terminate the enzymatic reaction, followed by adding the solution of internal standard telmisartan in methanol (30 μL, 20 μg/mL). Then, the resultant solution was centrifuged at 20000 rpm and 4° C. for 10 min. 100 μL of the supernatant was injected for detection by HPLC, and the concentration of dexmedetomidine was determined by an internal standard method. The degradation rate of the prodrug was calculated based on the concentration of dexmedetomidine. The chromatographic conditions are: Swell XDB C18 column (150 mm×4.6 mm, 5 μm); column temperature 30° C.; using gradient elution (see Table 1), mobile phase A: methanol, mobile phase B: 0.1% trifluoroacetic acid in water, and mobile phase C: acetonitrile; detection wavelength: 220 nm; flow rate: 1.0 mL/min; injection volume: 30 μL; retention time: 4.7 minutes for dexmedetomidine and 6.7 minutes for internal standard telmisartan. The linear range of dexmedetomidine: 2.5-100 μg/mL. Instruments: Waters 2695 high-performance liquid chromatograph, Waters 2996 photodiode array detector.

The subject of series [2] is Male SD rats. Kind of series: Hypnotic effect after tail vein injection (loss of righting reflex). Format: in vivo, rat. Conditions: for ED50: Rattus norvegicus, 50% of the dose for the disappearance of righting reflex in rats, tail vein injection; for Onset time: tail vein injection of 2× ED50, loss of righting reflex; for Onset time / Duration: rats; for Duration: tail vein injection of 2× ED50, until recovery of righting reflex. As to the method:
Male SD rats, weighing 250-300 g, were randomly divided into groups, with 10 rats in each group. […] The onset times and the duration of hypnosis were recorded.

The test system of series [3] is Male SD rats. In words: Blood pressure change after tail vein injection (mean arterial pressure). Conditions: dosage 2× ED50, injection within 15 seconds, 60 min recording, rats under isoflurane. The procedure:
Male SD rats weighing 250-300 g were randomly divided into groups, with 10 rats in each group. General anesthesia was maintained by inhaling isoflurane. By intubating via femoral artery, blood pressure was monitored using the BL-420N biological signal collection and analysis system. minutes after blood pressure stabilization, the baseline mean arterial pressure (MAP0) was measured. Subsequently, the physiological saline solution of each test drug was injected via the tail vein (the dosage of each drug was the same as that in Experiment example 2, with a unified injection […] volume of 1 mL). […] All prodrug molecules were injected within 15 seconds. After injection of each drug, the change in blood pressure was continuously recorded for 60 min. […] The difference MAPΔ+ between the baseline mean arterial pressure (MAP0) and the highest mean arterial pressure (MAPmax) during the 60 min measurement time was calculated; the difference MAPΔ− between the baseline mean arterial pressure (MAP0) and the lowest mean arterial pressure (MAPmin) during the 60 min measurement time was also obtained; both of the difference values were used to calculate the maximum increase rate of mean arterial pressure +Δ%=MAPΔ+/MAP0*100% and the maximum decrease rate of mean arterial pressure −Δ%=MAPΔ−/MAP0*100%, respectively. The maximum increase rate of mean arterial pressure +Δ% and the maximum decrease rate −Δ% reflect the degree of blood pressure change that the body experienced after administration. The larger the value, the greater the blood pressure change that the body experienced.

As usually defined, the ED50 is the midpoint of the dose-response relation. A lower ED50 goes with an effect at a small dose. As to `Cc1cccc([C@H](C)c2cn(COC(=O)C3CC3)cn2)c1C` [Compound 15-HCl], the “Degradation rate of prodrug %” value in series [1] (0.5 min) is recorded as 18%; in series [1] (1 min) it was 41%; in series [1] (2 min) it was 54%; in series [1] (3 min), 63%; in series [1] (5 min), 87%; in series [1] (10 min), 94%. For the same compound, the “Degradation rate of prodrug %” value in series [1] (15 min) worked out at 100%. The compound further came in with a 50% effective dose (ED50) in the series with Male SD rats [2] of 0.03 mg/kg. In the series with Male SD rats [2], the Onset time was 3.5 ± 1.2 min. The compound further yielded a Duration in the series on Male SD rats [2] of 43 ± 9 min. Besides, the “+Δ % (The maximum increase rate of blood pressure)” value with Male SD rats [3] was “*21 ± 5%”. In addition, in the series on Male SD rats [3], the “−Δ % (The maximum decrease rate of blood pressure)” value came to 36 ± 6%.
With `CCCC(=O)OCn1cnc([C@@H](C)c2cccc(C)c2C)c1` [Compound 8-HCl], in series [1] (0.5 min), the “Degradation rate of prodrug %” value worked out at 76%. Also, the “Degradation rate of prodrug %” value in series [1] (1 min) came to 89%. For the same compound, in series [1] (2 min), the “Degradation rate of prodrug %” value turned out to be 97%. The “Degradation rate of prodrug %” value in series [1] (3 min) worked out at 100%. In the series with Male SD rats [2], this compound had an ED50 of 0.024 mg/kg, an Onset time of 4.1 ± 2.4 min and a Duration of 31 ± 13 min. Moreover, in the series on Male SD rats [3], the “+Δ % (The maximum increase rate of blood pressure)” value was “*18 ± 8%” and the “−Δ % (The maximum decrease rate of blood pressure)” value was 31 ± 7%.
Turning to `Cc1cccc([C@H](C)c2cn(C(=O)OC(C)C)cn2)c1C` [Compound 5-HCl], the “Degradation rate of prodrug %” value in series [1] (0.5 min) amounted to 36%; in series [1] (1 min) it was 47%; in series [1] (2 min), 52%; in series [1] (3 min) it was 67%; in series [1] (5 min) it was 89%; in series [1] (10 min), 98%. For the same compound, in series [1] (15 min), the “Degradation rate of prodrug %” value amounted to 100%. In the series on Male SD rats [2], the 50% effective dose (ED50) amounted to 0.037 mg/kg. In the series with Male SD rats [2], the Onset time is on record as 3.7 ± 1.3 min. The Duration with Male SD rats [2] was determined as 61 ± 15 min. In addition, the “+Δ % (The maximum increase rate of blood pressure)” value in the series on Male SD rats [3] is on record as “*18 ± 6%”. Moreover, the “−Δ % (The maximum decrease rate of blood pressure)” value in the series with Male SD rats [3] came out at 35 ± 5%.
`CCC(=O)OC(C)n1cnc([C@@H](C)c2cccc(C)c2C)c1` (stereo partly shown) [Compound 18-HCl]: the “Degradation rate of prodrug %” value in series [1] (0.5 min) is given as 17%; in series [1] (1 min), 33%; in series [1] (2 min), 42%; in series [1] (3 min), 48%; in series [1] (5 min), 54%; in series [1] (10 min), 59%. For the same compound, the “Degradation rate of prodrug %” value came out at 64% in series [1] (15 min), 69% in series [1] (20 min), 72% in series [1] (30 min) and 75% in series [1] (60 min). The compound further came in with an ED50 in the series on Male SD rats [2] of 0.036 mg/kg. For the same compound, the Onset time in the series with Male SD rats [2] is given as 2.4 ± 0.9 min. In the series with Male SD rats [2], this compound returned a Duration of 41 ± 10 min. The “+Δ % (The maximum increase rate of blood pressure)” value with Male SD rats [3] came to 29 ± 12%. In addition, the “−Δ % (The maximum decrease rate of blood pressure)” value in the series on Male SD rats [3] is 34 ± 8%.
Regarding `CCOC(=O)OCn1cnc([C@@H](C)c2cccc(C)c2C)c1` [Compound 6-HCl], the “Degradation rate of prodrug %” value in series [1] (0.5 min) came to 21%; in series [1] (1 min), 47%; in series [1] (2 min) it was 76%; in series [1] (3 min), 89%; in series [1] (5 min), 96%; in series [1] (10 min), 100%. Also, the ED50 in the series on Male SD rats [2] worked out at 0.03 mg/kg. For the same compound, in the series with Male SD rats [2], the Onset time is given as 2.1 ± 1.1 min. Moreover, in the series on Male SD rats [2], the Duration is recorded as 45 ± 8 min. In the series on Male SD rats [3], the “+Δ % (The maximum increase rate of blood pressure)” value is recorded as “*23 ± 9%”. The “−Δ % (The maximum decrease rate of blood pressure)” value in the series with Male SD rats [3] was found to be 36 ± 6%.
Take `Cc1cccc([C@H](C)c2cn(COC(=O)C(C)C)cn2)c1C` [Compound 2-HCl]: the “Degradation rate of prodrug %” value in series [1] (0.5 min) was 35%; in series [1] (1 min), 57%; in series [1] (2 min) it was 87%; in series [1] (3 min), 94%; in series [1] (5 min), 100%. Also, it took a dose of 0.043 mg/kg to reach the 50% effect level with Male SD rats [2] (ED50). The same compound registered an Onset time in the series with Male SD rats [2] of 1.1 ± 0.2 min. In addition, in the series on Male SD rats [2], the Duration is 63 ± 15 min. For the same compound, in the series on Male SD rats [3], the “+Δ % (The maximum increase rate of blood pressure)” value was “*19 ± 11%”. Moreover, the “−Δ % (The maximum decrease rate of blood pressure)” value in the series with Male SD rats [3] is 32 ± 5%.
On to `COC(=O)OCn1cnc([C@@H](C)c2cccc(C)c2C)c1` [Compound 13-HCl], for which the “Degradation rate of prodrug %” value is 16% in series [1] (0.5 min); 44% in series [1] (1 min); 67% in series [1] (2 min); 79% in series [1] (3 min); 90% in series [1] (5 min); 96% in series [1] (10 min). Further, in series [1] (15 min), the “Degradation rate of prodrug %” value came out at 100%. In addition, in the series with Male SD rats [2], the median effective dose (ED50) was 0.025 mg/kg. For the same compound, in the series with Male SD rats [2], the Onset time was determined as 4.1 ± 1.3 min. In addition, the Duration with Male SD rats [2] came out at 36 ± 7 min. Moreover, in the series on Male SD rats [3], the “+Δ % (The maximum increase rate of blood pressure)” value is recorded as “*16 ± 8%”. The “−Δ % (The maximum decrease rate of blood pressure)” value in the series with Male SD rats [3] is 39 ± 7%.
Consider `Cc1cccc([C@H](C)c2cn(COC(=O)OC(C)C)cn2)c1C` [Compound 7-HCl], for which the “Degradation rate of prodrug %” value in series [1] (0.5 min) turned out to be 22%; in series [1] (1 min), 46%; in series [1] (2 min) it was 67%; in series [1] (3 min) it was 88%; in series [1] (5 min), 97%; in series [1] (10 min) it was 100%. The compound also returned an ED50 in the series with Male SD rats [2] of 0.036 mg/kg. Besides, the Onset time with Male SD rats [2] was determined as 4.6 ± 1.3 min. This compound had a Duration in the series on Male SD rats [2] of 39 ± 11 min. The “+Δ % (The maximum increase rate of blood pressure)” value with Male SD rats [3] was “*17 ± 8%”. Moreover, the “−Δ % (The maximum decrease rate of blood pressure)” value in the series on Male SD rats [3] was determined as 37 ± 8%.
As to `Cc1cccc([C@H](C)c2cn(COC(=O)C(C)(C)C)cn2)c1C` [Compound 3-HCl], the “Degradation rate of prodrug %” value in series [1] (0.5 min) was 36%; in series [1] (1 min), 73%; in series [1] (2 min) it was 87%; in series [1] (3 min), 96%; in series [1] (5 min), 100%. This compound also showed an ED50 with Male SD rats [2] of 0.059 mg/kg. The Onset time with Male SD rats [2] worked out at 2.6 ± 1.1 min. This compound yielded a Duration in the series with Male SD rats [2] of 50 ± 10 min. Moreover, the “+Δ % (The maximum increase rate of blood pressure)” value in the series with Male SD rats [3] was “*13 ± 6%”. Also, the “−Δ % (The maximum decrease rate of blood pressure)” value in the series on Male SD rats [3] came to 41 ± 8%.
As for `CCC(=O)OCn1cnc([C@@H](C)c2cccc(C)c2C)c1` [Compound 10-HCl], the “Degradation rate of prodrug %” value was 57% in series [1] (0.5 min); 82% in series [1] (1 min); 85% in series [1] (2 min); 97% in series [1] (3 min); 100% in series [1] (5 min). For the same compound, the ED50 in the series with Male SD rats [2] amounted to 0.028 mg/kg. In addition, in the series on Male SD rats [2], the Onset time is reported as 2.3 ± 1.1 min. In the series on Male SD rats [2], this compound registered a Duration of 48 ± 12 min. Besides, the “+Δ % (The maximum increase rate of blood pressure)” value in the series with Male SD rats [3] was 31 ± 7%. The “−Δ % (The maximum decrease rate of blood pressure)” value in the series with Male SD rats [3] is given as 40 ± 8%.
On to `COC(=O)CCC(=O)OCn1cnc([C@@H](C)c2cccc(C)c2C)c1` [Compound 25-HCl], for which the “Degradation rate of prodrug %” value in series [1] (0.5 min) is on record as 51%; in series [1] (1 min), 56%; in series [1] (2 min), 59%; in series [1] (3 min) it was 64%; in series [1] (5 min), 67%; in series [1] (10 min) it was 68%. The “Degradation rate of prodrug %” value stood at 69% in series [1] (15 min), 72% in series [1] (20 min), 76% in series [1] (30 min) and 79% in series [1] (60 min). In the series on Male SD rats [2], this compound showed a 50% effective dose (ED50) of 0.041 mg/kg. Also, the Onset time with Male SD rats [2] came to 3.1 ± 0.9 min. Also, the Duration with Male SD rats [2] is 63 ± 15 min. Besides, in the series on Male SD rats [3], the “+Δ % (The maximum increase rate of blood pressure)” value amounted to 31 ± 14%. In the series on Male SD rats [3], the “−Δ % (The maximum decrease rate of blood pressure)” value is 37 ± 7%.
